Residue numbers refer to the chain shown, from its start. “Also recorded” adds a separate entry of the source. Where a SMILES comes first, the peptide text is derived from it. Where no end group is shown, it is not given here. The star is where a group is joined. Palmitoyl = CCCCCCCCCCCCCCCC(=O)*
What was measured:
platelets = assay: Platelet intracellular Ca2+, agonist activity of peptides
S309P PAR1 = target: T1, S309P PAR1 (Homo sapiens, UniProt P25116, S309P); assay: InsP formation in COS7 cells expressing S309P PAR1 mutant; assay type: cell-based; conditions: relative to wild type PAR1
T1 construct: expressed in transfected cells; host or cells: COS7, transient
T1 sequence (P25116 22-425 S309P): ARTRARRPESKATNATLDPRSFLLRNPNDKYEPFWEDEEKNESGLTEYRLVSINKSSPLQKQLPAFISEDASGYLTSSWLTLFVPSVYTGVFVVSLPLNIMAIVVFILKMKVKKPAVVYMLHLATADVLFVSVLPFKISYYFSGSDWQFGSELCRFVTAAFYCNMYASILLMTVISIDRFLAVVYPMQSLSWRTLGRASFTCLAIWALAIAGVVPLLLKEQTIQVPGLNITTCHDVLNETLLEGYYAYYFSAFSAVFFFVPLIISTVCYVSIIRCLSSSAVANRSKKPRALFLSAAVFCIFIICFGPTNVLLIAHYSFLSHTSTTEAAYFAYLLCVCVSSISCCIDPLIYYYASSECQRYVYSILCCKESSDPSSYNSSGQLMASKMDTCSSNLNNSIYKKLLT

delta377 PAR1 = assay: InsP formation in COS7 cells expressing delta377 (C-tail deleted) PAR1 mutant; assay type: cell-based, human; conditions: relative to wild type PAR1
Chain of delta377 PAR1 (P25116 42-376 limits assumed): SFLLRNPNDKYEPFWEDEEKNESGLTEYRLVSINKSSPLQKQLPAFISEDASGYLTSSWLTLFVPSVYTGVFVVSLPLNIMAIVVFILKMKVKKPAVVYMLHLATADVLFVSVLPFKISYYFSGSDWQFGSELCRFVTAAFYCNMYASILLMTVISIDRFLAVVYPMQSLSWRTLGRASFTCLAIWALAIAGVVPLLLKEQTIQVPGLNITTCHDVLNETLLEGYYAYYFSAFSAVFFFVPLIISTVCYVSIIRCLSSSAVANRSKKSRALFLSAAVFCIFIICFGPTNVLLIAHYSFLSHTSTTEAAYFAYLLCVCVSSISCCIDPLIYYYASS

PAR4 [1] = target: T2, PAR4 (Homo sapiens, UniProt Q96RI0); assay: Inhibition of AYPGKF-induced human platelet aggregation; assay type: cell-based
T2 sequence (Q96RI0 18-385): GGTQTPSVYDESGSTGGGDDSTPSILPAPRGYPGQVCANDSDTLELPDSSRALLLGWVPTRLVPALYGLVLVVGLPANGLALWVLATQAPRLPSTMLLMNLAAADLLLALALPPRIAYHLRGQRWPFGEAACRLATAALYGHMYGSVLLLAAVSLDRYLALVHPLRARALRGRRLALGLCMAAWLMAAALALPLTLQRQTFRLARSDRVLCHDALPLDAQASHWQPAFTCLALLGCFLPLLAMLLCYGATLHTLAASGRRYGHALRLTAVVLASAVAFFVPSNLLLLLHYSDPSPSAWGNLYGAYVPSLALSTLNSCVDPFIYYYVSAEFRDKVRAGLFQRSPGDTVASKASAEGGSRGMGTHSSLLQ

PAR1 [2] = target: T3, PAR1 (Homo sapiens, UniProt P25116); assay: Inhibition of PAR1-dependent platelet Ca2+ signal; assay type: cell-based
T3 construct: expressed in transfected cells
T3 sequence (P25116 22-425): T1 sequence (P25116 22-425 S309P) with P288S
Method: (§1) Platelet Ca2+ measurements were performed as in Example 1.
(§2) The integrated Ca^2+ response for the individual treatments are relative to the full Ca^2+ responses for each agonist (100%) recorded in the absence of P4pal-10 (top trace).

PAR4 [3] = target: T2, PAR4; assay: Inhibition of PAR4-dependent platelet Ca2+ signal (AYPGKF); assay type: cell-based
Method: as §1, §2

PAR1 [4] = target: T3, PAR1; assay: InsP formation (PLC-β) in Rat1 fibroblasts expressing human PAR1; assay type: cell-based
cholecystokinin B (CCKB) = target: T4, cholecystokinin B (CCKB) (Homo sapiens, UniProt P32239); assay: InsP formation in COS7 cells expressing CCKB; assay type: cell-based; conditions: relative to 300 nM CCK-8
T4 construct: expressed in transfected cells; host or cells: COS7, transient
T4 sequence (P32239 1-447): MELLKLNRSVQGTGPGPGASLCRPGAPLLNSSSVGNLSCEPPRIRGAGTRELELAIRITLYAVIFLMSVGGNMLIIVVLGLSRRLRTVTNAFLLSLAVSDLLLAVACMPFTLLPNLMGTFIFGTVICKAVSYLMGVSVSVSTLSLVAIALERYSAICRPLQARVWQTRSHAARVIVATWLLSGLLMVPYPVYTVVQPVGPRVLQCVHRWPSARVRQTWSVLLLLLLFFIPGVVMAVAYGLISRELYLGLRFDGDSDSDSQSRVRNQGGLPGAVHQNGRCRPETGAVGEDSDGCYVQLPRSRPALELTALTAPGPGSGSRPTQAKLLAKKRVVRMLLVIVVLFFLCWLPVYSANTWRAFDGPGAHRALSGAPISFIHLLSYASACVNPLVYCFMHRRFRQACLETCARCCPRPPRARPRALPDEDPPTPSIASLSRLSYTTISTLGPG

[5] = target: T5, somatostatin receptor (SSTR2) (Rattus norvegicus, UniProt P30680); assay: InsP formation in COS7 cells expressing SSTR2; assay type: cell-based; conditions: relative to full response to 1 μM AGCKNFFWKTFTSC
T5 construct: expressed in transfected cells; host or cells: COS7, transient
T5 sequence (P30680 whole entry): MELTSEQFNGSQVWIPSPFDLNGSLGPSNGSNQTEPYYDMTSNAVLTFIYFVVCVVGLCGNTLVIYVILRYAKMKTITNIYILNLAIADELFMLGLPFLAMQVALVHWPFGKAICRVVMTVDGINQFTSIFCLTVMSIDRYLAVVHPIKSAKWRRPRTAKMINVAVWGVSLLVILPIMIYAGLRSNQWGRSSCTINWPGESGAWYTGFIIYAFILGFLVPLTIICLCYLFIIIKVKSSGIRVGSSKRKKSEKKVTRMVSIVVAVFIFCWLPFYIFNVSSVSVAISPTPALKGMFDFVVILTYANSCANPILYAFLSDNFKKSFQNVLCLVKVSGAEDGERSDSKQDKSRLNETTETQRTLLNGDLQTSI

[6] = 5 μM pepducin, SFLLRN followed by AYPGKF
[7] = 1.2-5 μM pepducin, AYPGKF first, then SFLLRN

Q: Which “agonist activity in platelet aggregation” value (human platelets) does the source give for “Y12pal-18: pepducin based on the i3-loop of P2Y12; peptide YVRTRGVGKVPRKKVNVF (SEQ ID NO:33) (also: palmitoyl lipid, position not given here) [Pepducin Y12pal-18]” here?
A: The value was “no agonist activity”.

Q: For RSLSSSAVANRSKKSRALF [Pepducin P1-i3-19], which “agonist activity, platelet intracellular Ca2+” value (platelets) is on record?
A: The value was “causes little stimulation of Ca^2+ fluxes”.

Q: SFLLRN was tested. Which “loss of efficacy on S309P mutant” value (S309P PAR1) did it give?
A: Its value is 3.3 fold.

Q: What about the “loss of potency on S309P mutant” value (S309P PAR1) of the same compound?
A: The value was 28 fold.

Q: And the “shift of potency on delta377 mutant” value (delta377 PAR1)?
A: The value was about 30 fold.

Q: What does the source list for CCCCCCCCCCCCCCCC(=O)N[C@@H](Cc1c[nH]cn1)C(=O)N[C@H](C(=O)N[C@@H](CC(C)C)C(=O)N[C@@H](C)C(=O)N[C@@H](C)C(=O)N[C@@H](CO)C(=O)NCC(=O)N[C@@H](CCCNC(=N)N)C(=O)N[C@@H](CCCNC(=N)N)C(=O)N[C@@H](Cc1ccc(O)cc1)C(=O)NCC(=O)N[C@@H](Cc1c[nH]cn1)C(=O)N[C@@H](C)C(=O)N[C@@H](CC(C)C)C(=O)N[C@@H](CCCNC(=N)N)C(N)=O)[C@@H](C)O [Pepducin P4pal-15] (Palmitoyl-HTLAASGRRYGHALR-NH2)?
A: IC50 (PAR4 [1]): 600 nM; inhibition of PAR4-dependent platelet aggregation (PAR4 [1]; AYPGKF): effective inhibitor of platelet aggregation; inhibition of PAR1-dependent Ca2+ response (PAR1 [2]; SFLLRN (or thrombin) after peptide pre-treatment): without affecting SFLLRN; inhibition of PAR4-dependent Ca2+ response (PAR4 [3]; 3 micromolar pepducin, 200 Micromolar AYPGKF): fully antagonize PAR4 signaling; also recorded: blocked AYPGKF; agonist activity, platelet intracellular Ca2+ (platelets): had no agonist activity

Q: Which results are given for CCCCCCCCCCCCCCCC(=O)N[C@@H](CCCNC(=N)N)C(=O)N[C@@H](CS)C(=O)N[C@@H](CC(C)C)C(=O)N[C@@H](CO)C(=O)N[C@@H](CO)C(=O)N[C@@H](CO)C(=O)N[C@@H](C)C(=O)N[C@H](C(=O)N[C@@H](C)C(=O)N[C@@H](CC(N)=O)C(=O)N[C@@H](CCC(N)=O)C(=O)N[C@@H](CO)C(=O)N[C@@H](CCC(N)=O)C(=O)N[C@@H](CCC(N)=O)C(=O)N[C@@H](CO)C(=O)N[C@@H](CCC(N)=O)C(=O)N[C@@H](C)C(=O)N[C@@H](CC(C)C)C(=O)N[C@@H](Cc1ccccc1)C(N)=O)C(C)C [Pepducin P1pal-19Q] (Palmitoyl-RCLSSSAVANQSQQSQALF-NH2)?
A: Agonist Efficacy (PAR1 [4]): 46 ± 8%; loss in efficacy, stimulation of InsP (PAR1 [4]): 2 fold; loss in efficacy, platelet aggregation (human platelets; relative to P1pal-19): 2 fold

Q: How did the “Agonist Efficacy” value (cholecystokinin B (CCKB)) turn out when CCCCCCCCCCCCCCCC(=O)N[C@@H](CO)C(=O)NCC(=O)N[C@@H](CO)C(=O)N[C@@H](CCCNC(=N)N)C(=O)N1CCC[C@H]1C(=O)N[C@H](C(=O)N[C@@H](CCC(N)=O)C(=O)N[C@@H](C)C(=O)N[C@@H](CCCCN)C(=O)N[C@@H](CC(C)C)C(=O)N[C@@H](CC(C)C)C(=O)N[C@@H](C)C(=O)N[C@@H](CCCCN)C(=O)N[C@@H](CCCCN)C(=O)N[C@@H](CCCNC(=N)N)C(=O)N[C@H](C(=O)N[C@H](C(=O)N[C@@H](CCCNC(=N)N)C(N)=O)C(C)C)C(C)C)[C@@H](C)O [Bpal-18] (Palmitoyl-SGSRPTQAKLLAKKRVVR-NH2) was run?
A: The value was 12 ± 3%.

Q: “VPLIISTVCYVSIIRCLSSSAVANRSKKSRALF [Pepducin P1-i3-33]” was tested. Which “agonist activity, platelet intracellular Ca2+” value (platelets) did it give?
A: Its value is “has similar potency to the P1-i3-40 peptide”.

Q: Which results are given for CCCCCCCCCCCCCCCC(=O)N[C@@H](CO)C(=O)NCC(=O)N[C@@H](CCCNC(=N)N)C(=O)N[C@@H](CCCNC(=N)N)C(=O)N[C@@H](Cc1ccc(O)cc1)C(=O)NCC(=O)N[C@@H](Cc1c[nH]cn1)C(=O)N[C@@H](C)C(=O)N[C@@H](CC(C)C)C(=O)N[C@@H](CCCNC(=N)N)C(N)=O [Pepducin P4pal-10] (Palmitoyl-SGRRYGHALR-NH2)?
A: IC50 (PAR4 [1]): 500 to 1000 nM; inhibition of PAR1 Ca2+ response (PAR1 [2]; [6]): 36%; attenuation of PAR1 Ca2+ signal (PAR1 [2]; [7]): 17-67%; inhibition of PAR4 Ca2+ response (PAR4 [3]; [6]): 97%; attenuation of PAR4 Ca2+ response (PAR4 [3]; [7]): 50-80%

Q: What does the source list for CCCCCCCCCCCCCCCC(=O)O [Palmitic acid, reference compound]?
A: agonist activity in platelet aggregation (human platelets): has no effect; agonist activity, platelet intracellular Ca2+ (platelets): has no effect

Q: For CCCCCCCCCCCCCCCC(=O)N[C@@H](CCCCN)C(=O)N[C@H](C(=O)N[C@@H](CCCNC(=N)N)C(=O)N[C@@H](CO)C(=O)N[C@@H](CO)C(=O)NCC(=O)N[C@H](C(=O)N[C@@H](CCCNC(=N)N)C(=O)N[C@H](C(=O)NCC(=O)N[C@@H](CO)C(=O)N[C@@H](CO)C(=O)N[C@@H](CCCCN)C(=O)N[C@@H](CCCNC(=N)N)C(=O)N[C@@H](CCCCN)C(=O)N[C@@H](CCCCN)C(=O)N[C@@H](CO)C(=O)N[C@@H](CCC(=O)O)C(=O)N[C@@H](CCCCN)C(=O)N[C@@H](CCCCN)C(=O)N[C@H](C(=O)N[C@H](C(=O)N[C@@H](Cc1ccccc1)C(N)=O)[C@@H](C)O)C(C)C)C(C)C)[C@@H](C)CC)C(C)C [Pepducin S2pal-23F] (Palmitoyl-KVRSSGIRVGSSKRKKSEKKVTF-NH2), which “Agonist Efficacy” value [5] is on record?
A: The value was 15 ± 4%.

Q: How did the “stimulation of InsP production (agonist activity)” value (PAR1 [4]) turn out when “INLKALAALAKKIL [mastoparan, reference compound]” was run?
A: Its value is “did not stimulate InsP production”.

Q: “VCYVSIIRSLSSSAVANRSKKSRALF [Pepducin P1-i3-26]” was tested. Which “agonist activity, platelet intracellular Ca2+” value (platelets) did it give?
A: The value was “gives a minor, unregulated Ca^2+i response”.

Q: For CCCCCCCCCCCCCCCC(=O)N[C@@H](CO)C(=O)NCC(=O)N[C@@H](CO)C(=O)N[C@@H](CCCNC(=N)N)C(=O)N1CCC[C@H]1C(=O)N[C@H](C(=O)N[C@@H](CCC(N)=O)C(=O)N[C@@H](C)C(=O)N[C@@H](CCCCN)C(=O)N[C@@H](CC(C)C)C(=O)N[C@@H](CC(C)C)C(=O)N[C@@H](C)C(=O)N[C@@H](CCCCN)C(=O)N[C@@H](CCCCN)C(=O)N[C@@H](CCCNC(=N)N)C(=O)N[C@H](C(=O)N[C@H](C(=O)N[C@@H](Cc1ccccc1)C(N)=O)C(C)C)C(C)C)[C@@H](C)O [Bpal-18F] (Palmitoyl-SGSRPTQAKLLAKKRVVF-NH2), which “Agonist Efficacy” value (cholecystokinin B (CCKB)) is on record?
A: Its value is 13 ± 2%.

Q: What does the source list for CCCCCCCCCCCCCCCC(=O)N[C@@H](CCCNC(=N)N)C(=O)N[C@@H](CS)C(=O)N[C@@H](CCC(=O)O)C(=O)N[C@@H](CO)C(=O)N[C@@H](CO)C(=O)N[C@@H](CO)C(=O)N[C@@H](C)C(=O)N[C@@H](CCC(=O)O)C(=O)N[C@@H](C)C(=O)N[C@@H](CC(N)=O)C(=O)N[C@@H](CCCNC(=N)N)C(=O)N[C@@H](CO)C(=O)N[C@@H](CCCCN)C(=O)N[C@@H](CCCCN)C(=O)N[C@@H](CCC(=O)O)C(=O)N[C@@H](CCCNC(=N)N)C(=O)N[C@@H](CCC(=O)O)C(=O)N[C@@H](CC(C)C)C(=O)N[C@@H](Cc1ccccc1)C(N)=O [Pepducin P1pal-19E] (Palmitoyl-RCESSSAEANRSKKERELF-NH2)?
A: Agonist Efficacy (PAR1 [4]): 11 ± 1%; loss of agonist activity (PAR1 [4]): ~90%; IC50 (PAR1 [4]; Antagonist IC50): > 50000 nM

Q: “FSAVFFFVPL1ISTVCYVSI1RCLSSSAVANRSKKSRALF (FSAVFFFVPLIISTVCYVSIIRCLSSSAVANRSKKSRALF) [Pepducin P1-i3-40]” was tested. Which “agonist activity, platelet intracellular Ca2+” value (platelets) did it give?
A: Its value is “causes a rapid intracellular Ca^2+ transient”.

Q: What about the “lag phase of Ca2+i transient” value (platelets) of the same compound?
A: Its value is under 5 s.

Reference: patent publication US8324172B2, “G protein coupled receptor agonists and antagonists and methods of activating and inhibiting G protein coupled receptors using the same” (Tufts Medical Center, Inc., priority 2000, dated 2012)
